# Columns and labels:
# [1] = tested on: rabbit costicartilage cells; assay: Cartilage matrix (proteoglycan) production, Alcian blue staining (Experimental Examples 3 and 4); type: cell-based; details: summary of Tables 10 and 11
# Description: Costicartilages were isolated from NZ line rabbit (Kitayama Labes., Co Ltd.; male; 4-week-old) and soaked into Hank's balanced salt solution (calcium- and magnesium-free; LifeTech Co., Ltd.; hereinafter, referred to as “HBSS”). One costicartilage and one costa were excised together, the adipose tissue and the muscle tissue were removed and then, the proliferating chondrocyte layer of costicartilage was excised. The collected proliferating chondrocyte layer was cut into sections with a surgical knife (FEATHER Safety Razor Co., Ltd.) and the all proliferating chondrocyte layer sections from 4 rabbits were combined in a centrifuge tube. To the centrifuge tube was added 40 ml of HBSS (pH 7.2) supplied with 0.1% tetrasodium ethylenediamine tetraacetate to obtain suspension of the proliferating chondrocyte layer sections, which was shaken at 37° C. for 20 minutes and centrifuged (1500 rpm, 10 minutes). The supernatant was aspirated off, and 40 ml of HBSS (pH 7.2) supplied with 0.2% trypsin was added to the tube to suspend the precipitates and shaken at 37° C. for 1 hour. The tube was centrifuged (1500 rpm, 10 minutes), and the supernatant was aspirated off. The precipitates were washed twice with HBSS, suspended in 100 ml of HBSS supplied with 0.1% collagenase (Wako Pure Chemical Industries, Ltd., 034-10533) and shaken at 37° C. for 3 hours. The content of the tube was passed through the Cell Strainer (pore size 40 μm) and the filtrate was divided into four centrifuge tubes. To each of all four tubes was added 40 ml of medium (α-MEM, LifeTech Co., Ltd.), and the tubes were centrifuged (1500 rpm, 10 minutes). The supernatant was aspirated off, and the resultant precipitates were collected in one tube with Pipetman. After addition of 40 ml of the same medium, the tube was re-centrifuged (1500 rpm, 10 minutes). Washing procedure comprising addition of medium followed by centrifugation was repeated additional three times. The precipitates were suspended in the same medium to give an about 5 ml suspension, and the cell number was counted.
# The suspension of costicartilage cell described above was added to 24-well plate at 50,000 cells per well (day 1). […]
# After removing the medium, cells in each well were fixed by addition of 1 ml of neutral buffer containing 4% paraformaldehyde and incubation for 30 minutes at room temperature. […] Absorbance at 620 nm was measured, and cartilage matrix amount (proteoglycan production amount) in each well was estimated, and proteoglycan production rate (%) of each test compound for vehicle (100%) was calculated.
# The cartilage matrix (proteoglycan) production was determined using other compounds (compounds (52)-(55) and Compound (2) for comparison) in exactly the same manner as Experimental Example 3 above.
# [2] = tested on: fibula fracture region; assay: Acceleration of fracture healing in normal rat, Compound (1) microspheres (Experimental Example 1); type: in vivo; details: normal rats, Example 2-(1) microspheres, 6 weeks after suturing; for Fibula Bone Mineral Density: at cutting site; for Fibula Bone Mineral Density / Fibula Bone Mineral Content: DXA at fracture region; for Breaking Energy / Breaking force: three-point bending test
# Experimental: CD (SD) IGS rats (Charles River Japan, Inc.; male; 7-week-old) were housed for seven days at room temperature (23±2° C.) and 40-70% humidity. During the housing period, the rats were free to access commercially available food (from Oriental Bio; CE-2).
# Under ether anesthesia, the left-lower legs of rats were shaved and sterilized with 70% aqueous ethanol, fibulas were exposed with scissors and cut with nail scissors (Natsume Seisakusyo; B17). The cut sections of the fibula were re-matched with tweezers. For the test groups (20 rats/group), the drug-containing microspheres prepared in Example 2-(1), which contains 0.1 or 0.5 mg of Compound (1), were placed around the cutting site of each rat using spatula followed by suturing with silk thread. For the control group (20 rats/group), the same amount of drug-free microspheres prepared in Control Example 1-(1) were placed around the cutting site using spatula followed by suturing with silk thread. Following the suturing, animals of every group were sterilized with 70% aqueous ethanol. At six weeks after the suturing, under ether anesthesia, 10 rats from each group were sacrificed by laparotomy with bleeding and the fibulas were excised.
# The fibula excised at 6 weeks after suturing was subjected to DXA bone densitometer (Aloka; DCS-600) to determine bone mineral density and bone mineral content at fracture region (scanning width: 1 mm).
# The volume of fibula excised 6 weeks after suturing was determined using Plethysmometer (Muromachi Kikai Co., Ltd.; TK-101).
# The fibula excised at 6 weeks after suturing was subjected to a three-point bending test with bone strength tester (from Muromachi Kikai Co., Ltd.; TK-252C) to determine bone strength. Briefly, the fibula was supported by two supports apart from each other by 8 mm and the cut section was positioned at the middle of these supports, i.e., 4 mm apart from the respective two supports. Loading (3 mm/minute) from upper direction was kept on the middle point (fracture section) of fibula until fibula begins to fracture. The maximum pressure necessary to break the bone was defined as the breaking force and the total energy spent to break the bone was defined as the breaking energy.
# [3] = tested on: cultured rabbit costicartilage cells; assay: Calcification of chondrocyte (Experimental Example 5); type: cell-based; details: 10^−4 M; 4 week cultivation; silver nitrate and Alizarin Red staining; FIG. 1
# Description: Costicartilages were isolated from NZ line rabbit (Kitayama Labes., Co Ltd.; male; 4-week-old) and soaked into Hank's balanced salt solution (calcium- and magnesium-free; LifeTech Co., Ltd.; hereinafter, referred to as “HBSS”). One costicartilage and one costa were excised together, the adipose tissue and the muscle tissue were removed and then, the proliferating chondrocyte layer of costicartilage was excised. The collected proliferating chondrocyte layer was cut into sections with a surgical knife (FEATHER Safety Razor Co., Ltd.) and the all proliferating chondrocyte layer sections from 4 rabbits were combined in a centrifuge tube. To the centrifuge tube was added 40 ml of HBSS (pH 7.2) supplied with 0.1% tetrasodium ethylenediamine tetraacetate to obtain suspension of the proliferating chondrocyte layer sections, which was shaken at 37° C. for 20 minutes and centrifuged (1500 rpm, 10 minutes). The supernatant was aspirated off, and 40 ml of HBSS (pH 7.2) supplied with 0.2% trypsin was added to the tube to suspend the precipitates and shaken at 37° C. for 1 hour. The tube was centrifuged (1500 rpm, 10 minutes), and the supernatant was aspirated off. […] The precipitates were suspended in the same medium to give an about 5 ml suspension, and the cell number was counted. […]
# [4] = tested on: backbone, femur and cortical bone of mouse; details: daily subcutaneous injection; cited from earlier work
smiles,measurement,setting,value
COc1cc2c(cc1OC)C(c1ccnc(-n3ccc4c(OCCN5CCOCC5)cccc4c3=O)c1)=N[C@H](CO)C2 [Compound (52)],cartilage matrix (proteoglycan) production promoting effect (in words),[1],remarkable matrix production promoting effect
CCOc1cc2cc(CO)c(CO)c(-c3ccn(CCOC)c(=O)c3)c2cc1OCC [Compound (1)],Fibula Bone Mineral Density,[2]; drug content 0.1 mg,36.77 ± 1.52 mg/cm^2
same,Fibula Bone Volume,[2]; drug content 0.1 mg,68.1 ± 2.9 µL
same,Fibula Bone Mineral Content,[2]; drug content 0.1 mg,14.27 ± 0.76 mg
same,Breaking Energy,[2]; drug content 0.1 mg,4.37 ± 0.71 mJ
same,Breaking force,[2]; drug content 0.1 mg,19.8 ± 2.14 N
same,Fibula Bone Mineral Density,[2]; drug content 0.5 mg,40.05 ± 1.34 mg/cm^2
same,Fibula Bone Volume,[2]; drug content 0.5 mg,77.2 ± 2.9 µL
same,Fibula Bone Mineral Content,[2]; drug content 0.5 mg,15.20 ± 0.82 mg
same,Breaking Energy,[2]; drug content 0.5 mg,6.44 ± 1.06 mJ
same,Breaking force,[2]; drug content 0.5 mg,23.0 ± 1.68 N
same,cartilage matrix (proteoglycan) production promoting effect (in words),[1],remarkable matrix production promoting effect
same,calcium deposition / calcification enhancement,[3],calcium deposition was clearly observed
COc1cc2cc(CO)nc(-c3ccnc(-n4nc(-c5nccs5)c5ccccc5c4=O)c3)c2cc1OC [Compound (53)],cartilage matrix (proteoglycan) production promoting effect (in words),[1],remarkable matrix production promoting effect
COc1ccc(C2CNC(=O)C2)cc1OC1CCCC1 (stereo not drawn) [Rolipram],bone mineral density of the backbone and the femur,[4],increase of bone mineral density of the backbone and the femur
same,hyperplasia of cortical bone,[4],hyperplasia of cortical bone
CC(=O)CCCCn1c(=O)c2c(ncn2C)n(C)c1=O [Pentoxifylline],bone mineral density of the backbone and the femur,[4],increase of bone mineral density of the backbone and the femur
same,hyperplasia of cortical bone,[4],hyperplasia of cortical bone
